# Measured values from paper PMC8741514, “Post-translational modifications within tau paired helical filament nucleating motifs perturb microtubule interactions and oligomer formation” (The Journal of Biological Chemistry, 2021).
# Entries after “also recorded” stand apart in the source; their conditions may differ.
# Test system: T2R complex
# Assay: STD NMR titration, tau peptide binding to T2R
# Parameters: species or system porcine (tubulin isolated from porcine brain)
# Conditions: T2R 10 μM; for STD signal / binding to T2R: 1H STD NMR, peptide 2.8 mM, 600 MHz, saturation time 2 s, GPEM buffer pH 6.9; for STD signal / binding to T2R / apparent Kd / affinity for T2R (in words): 10 °C; for apparent Kd / affinity for T2R (in words): STD amplification factor fit, large errors, qualitative
# Description: Tubulin protein isolated from porcine brain (97 or >99% pure) was purchased from Cytoskeleton, Inc, as a lyophilized powder. Stathmin-like RB3 domain (RB3SLD) binds to heterodimeric tubulin with a 1:2 stoichiometry, forming a longitudinal dimer of tubulin dimers. For ^1H,^15N HSQC NMR experiments, lyophilized tubulin was dissolved into a solution of 48 μM ^15N-labeled K18 (unmodified, modified, or mutant) containing 53 μM RB3 for a final T2R concentration of 50 μM in a buffer containing 25 mM Tris-d11, 25 mM NaCl, 2.5 mM EDTA, 1.5 mM DTT, and 10% heavy water (deuterium oxide [D2O]) at pH 6.7. For ^1H STD NMR experiments, 10 μM T2R was used for samples containing 0.044 to 2.8 mM peptide. Peptide was directly dissolved into buffer or water and added to 10 μM T2R in a buffer containing 25 mM Tris-d11, 25 mM NaCl, 2.5 mM EDTA, 1.5 mM DTT, and 10% D2O at pH 6.7.
# STD spectra were recorded at 10 °C on a 600 MHz spectrometer equipped with a cryoprobe by using a series of 40 equally spaced 50 ms Gaussian-shaped pulses, 4096 scans, a saturation time of 2 s, and on/off-resonance frequencies set to −0.5 and 60 ppm, respectively. Samples for ^1H STD NMR were dissolved into GPEM buffer (80 mM PIPES, 2 mM MgCl2, and 0.5 mM EGTA, at pH 6.9). Spectra were processed and analyzed using Topspin 3.1 (Bruker). We quantify the binding of tau peptides to T2R with a series of STD titration experiments ([95]). STD NMR spectra of the ligand with and without T2R were recorded. The concentration of ligand (tau peptide) ranged from 0.04 to 2.8 mM; T2R concentration was maintained at 10 μM. From STD NMR spectra, STD signals were integrated and summed for both STDdiff and STDref over three regions, 8.565 to 7.771, 7.584 to 7.384, and 7.073 to 6.681 ppm. From STDdiff and STDref, STD AFs (STDAF) were calculated according to Equation 1, where [L] is the concentration of peptide (0.04–2.8 mM) and [R] is the concentration of T2R (10 μM). […] STD-AF values (at a fixed saturation time) of a peptide were fitted according to Equation 2, where αSTD represents the maximum STD AF ([72]). For peptide concentration of […] and T2R concentration of 10 μM, we generated STD build-up curves by recording the STD difference signal at increasing saturation times of 0.1 to 4 s. […] (2) STDAF([L])=αSTD∗[L]/Kd+[L] (3) STDAF(t)=STDmax(1−e^(−Ksat∗t)) STD0=STDmax∗Ksat
sequence,measurement,setting,value
"NLKHQPGGGKVQIIN {acetyl-K} KLDLSNVQSK [Acetyl-K280 265 to 290, K280 acetylated form of the 265 to 290 peptide]",STD signal / binding to T2R,listed as acetylation at K280,further weakened
same,STD signal / binding to T2R,listed as acetylation at residue K280,Decreases in binding
same,apparent Kd / affinity for T2R (in words),"peptide 0.044 to 2.8 mM, listed as K280 acetylation","trend toward reduced binding, though to a lesser extent"
"NIKHVPGGGSVQIVY {succinyl-K} PVDLSKVTSK [Succinyl-K311 296 to 321, K311 succinylated form of the 296 to 321 peptide]",STD signal / binding to T2R,listed as succinylation at residue K311,loss of binding is evident; also recorded: Decreases in binding
same,apparent Kd / affinity for T2R (in words),"peptide 0.044 to 2.8 mM, listed as Succinylation at K311",trend toward lower apparent affinity
same,apparent Kd / affinity for T2R (in words),"peptide 0.044 to 2.8 mM, listed as Succinylation of K311","trend toward reduced binding, though to a lesser extent"
same,apparent Kd increase vs 296 to 321 peptide,"STD-AF, peptide 0.044 to 2.8 mM, trend",ca. twofold
"NIKHVPGGGSVQIV {phospho-Y} KPVDLSKVTSK [Phos-Y310 296 to 321, Y310 phosphorylated form of the 296 to 321 peptide]",STD signal / binding to T2R,listed as phosphorylation at residue Y310,weaker STD signal; also recorded: Decreases in binding
same,apparent Kd / affinity for T2R (in words),"peptide 0.044 to 2.8 mM, listed as Y310 phosphorylated peptide",severely reduced peptide binding to T2R
same,apparent Kd / affinity for T2R (in words),"peptide 0.044 to 2.8 mM, listed as Y310 phosphorylated peptides",precluded a reliable fit
same,apparent Kd / affinity for T2R (in words),"peptide 0.044 to 2.8 mM, listed as phosphorylation at Y310","linear binding curve over the accessible range of peptide concentrations, precluding a robust fit to the data, but indicating a more severe reduction in affinity"
